Read-outs that look alike come from different tables or passages of the source.
Key:
Format in all cases: cell-based
U87MG glioblastoma cells = test: Resazurin reduction cytotoxicity assay, U87MG; conditions: Homo sapiens, U-87 MG, 72 h, read-out: IC50 values
Description: (§1) The resazurin reduction assay was performed to assess the cytotoxicity of compounds and doxorubicin as control drug towards various sensitive and drug-resistant cancer cell lines, including the CCRF-CEM and CEM/ADR5000 leukemia, MDA-MB231 breast cancer cells and its resistant subline MDA-MB231/BCRP, HCT116p53^+/+ colon cancer cells and its resistant subline HCT116p53^−/−, U87MG glioblastoma cells and its resistant subline U87MG. ΔEGFR and HepG2 hepatocarcinoma cells and normal AML12 hepatocytes. The assay is based on the reduction of the indicator dye, resazurin, to the highly fluorescent resorufin by viable cells. […] Briefly, adherent cells were detached by treatment with 0.25% trypsin/EDTA (Invitrogen, Darmstadt Germany) and an aliquot of 1 × 10^4 cells was placed in each well of a 96-well cell culture plate (Thermo Scientific, Langenselbold, Germany) in a total volume of 200 μL. Cells were allowed to attach overnight and then were treated with different concentrations of compounds. For suspension cells, aliquots of 2 × 10^4 cells per well were seeded in 96-well-plates in a total volume of 100 μL. The studied compounds were immediately added in varying concentrations in an additional 100 μL of culture medium to obtain a total volume of 200 μL/well. After 72 h, resazurin (Sigma-Aldrich, Schnelldorf, Germany) (20 μL, 0.01% w/v) in distilled H2O was added to each well and the plates were incubated at 37°C for 4 h. Fluorescence was measured on an Infinite M2000 ProTM plate reader (Tecan, Crailsheim, Germany) using an excitation wavelength of 544 nm and an emission wavelength of 590 nm. Each assay was done at least twice with six replicates each. The viability was evaluated based on a comparison with untreated cells. IC50 values represent the compound concentrations required to inhibit 50% of cell proliferation and were calculated from a calibration curve by linear regression using Microsoft Excel.

[1] = tested on: MDA-MB231 breast cancer cells; test: Resazurin reduction cytotoxicity assay, MDA-MB231; conditions: Homo sapiens, read-out: IC50 values
Description: as §1

CCRF-CEM leukemia cells = test: Resazurin reduction cytotoxicity assay, CCRF-CEM; conditions: Homo sapiens, 72 h, read-out: IC50 values
Description: as §1

normal AML12 hepatocytes = test: Resazurin reduction cytotoxicity assay, normal AML12 hepatocytes; conditions: Mus musculus, read-out: IC50 values
Description: as §1

U87MG. ΔEGFR cells = test: Resazurin reduction cytotoxicity assay, U87MG.ΔEGFR; conditions: Homo sapiens, U-87 MG, 72 h, read-out: IC50 values
Description: as §1

[2] = tested on: HCT116 (p53-/-) colon cancer cells; test: Resazurin reduction cytotoxicity assay, HCT116 (p53-/-); conditions: Homo sapiens, read-out: IC50 values
Description: as §1

[3] = tested on: CEM/ADR5000 leukemia cells; test: Resazurin reduction cytotoxicity assay, CEM/ADR5000; conditions: Homo sapiens, read-out: IC50 values
Description: as §1

[4] = tested on: HepG2 hepatocarcinoma cells; test: Resazurin reduction cytotoxicity assay, HepG2; conditions: Homo sapiens, read-out: IC50 values
Description: as §1

[5] = tested on: HCT116 (p53+/+) colon cancer cells; test: Resazurin reduction cytotoxicity assay, HCT116 (p53+/+); conditions: Homo sapiens, read-out: IC50 values
Description: as §1

MDA-MB231/BCRP cells = test: Resazurin reduction cytotoxicity assay, MDA-MB231/BCRP; conditions: MDA-MB-231/BCRP, 72 h, read-out: IC50 values
Description: as §1

[6] = tested on: nine tested cancer cell lines; test: Resazurin reduction cytotoxicity assay, panel of nine cancer cell lines; conditions: all nine cancer cell lines, 72 h, read-out: IC50 values towards all the nine tested cancer cell lines
Description: as §1, with “The studied compounds were immediately added in varying concentrations in an additional 100 μL of culture medium to obtain a total volume of 200 μL/well. After 72 h, resazurin (Sigma-Aldrich, Schnelldorf, Germany) (20 μL, 0.01% w/v) in distilled H2O was added to each well and the plates were incubated at 37°C for 4 h.” left out, “Each assay was done at least twice with six replicates each.” left out, “IC50 values represent the compound concentrations required to inhibit 50% of cell proliferation and were calculated from a calibration curve by linear regression using Microsoft Excel.” left out

[7] = U87MG glioblastoma cells, resazurin assay
[8] = MDA-MB-231, MDA-MB231 breast cancer cells, resazurin assay, 72 h
[9] = CCRF-CEM leukemia (sensitive), resazurin assay
[10] = normal AML12 hepatocytes, resazurin assay, 72 h
[11] = U87MG. ΔEGFR resistant subline, resazurin assay
[12] = CEM/ADR5000 leukemia (resistant), resazurin assay, 72 h
[13] = HepG2 hepatocarcinoma cells, resazurin assay, 72 h
[14] = MDA-MB231/BCRP resistant subline, resazurin assay

**Q.** `COc1cccc2c1C(=O)c1c(O)c3c(c(O)c1C2=O)C[C@@](O)(C(=O)CO)C[C@@H]3O[C@H]1C[C@H](N)[C@H](O)[C@H](C)O1` [Doxorubicin, doxorubicin, reference compound] was tested. Which IC50 (U87MG glioblastoma cells; [7]) did it give?
**A.** Its IC50 is 1.06 ± 0.15 µM.

**Q.** What about the IC50 [1, 8] of the same compound?
**A.** The IC50 was 1.1 ± 0.28 µM.

**Q.** What about the IC50 (CCRF-CEM leukemia cells; [9]) of the same compound?
**A.** Its IC50 is 0.2 ± 0.06 µM.

**Q.** And the IC50 (normal AML12 hepatocytes; [10])?
**A.** The IC50 was over 73.6 µM.

**Q.** And the IC50 (U87MG. ΔEGFR cells; [11])?
**A.** The IC50 was 6.11 ± 0.57 µM.

**Q.** And the IC50 ([2]; HCT-116, 72 h)?
**A.** The IC50 was 4.06 ± 0.07 µM.

**Q.** And the IC50 [3, 12]?
**A.** The IC50 was 195 ± 14.3 µM.

**Q.** And the IC50 [4, 13]?
**A.** Its IC50 is 3.83 ± 0.94 µM.

**Q.** What about the IC50 ([5]; HCT-116, 72 h) of the same compound?
**A.** The IC50 was 1.41 ± 0.29 µM.

**Q.** And the IC50 (MDA-MB231/BCRP cells; [14])?
**A.** Its IC50 is 7.83 ± 0.47 µM.

**Q.** For `COc1c(O)ccc2c1C(O)N(C)c1c-2ccc2cc3c(cc12)OCO3` (stereo not drawn) [Compound 1, 1-methoxy-12-methyl-12,13-dihydro-[1,3]dioxolo[4′,5′:4,5]benzo[1,2-c]phenanthridine-2,13-diol], which IC50 (U87MG glioblastoma cells; [7]) is on record?
**A.** The IC50 was 60.6 ± 7.29 µM.

**Q.** And the IC50 [1, 8]?
**A.** The IC50 was 30.1 ± 4.12 µM.

**Q.** And the IC50 (CCRF-CEM leukemia cells; [9])?
**A.** The IC50 was 0.24 ± 0.01 µM.

**Q.** What about the IC50 (normal AML12 hepatocytes; [10]) of the same compound?
**A.** The IC50 was over 107 µM.

**Q.** What about the IC50 (U87MG. ΔEGFR cells; [11]) of the same compound?
**A.** The IC50 was 61.8 ± 4.68 µM.

**Q.** And the IC50 [6]?
**A.** The IC50 was at most 65 µM.

**Q.** What about the IC50 ([2]; HCT-116, HCT116 (p53-/-) resistant subline, resazurin assay, 72 h) of the same compound?
**A.** The IC50 was 62.3 ± 4.41 µM.

**Q.** What about the IC50 [3, 12] of the same compound?
**A.** The IC50 was 31.6 ± 3.48 µM.

**Q.** And the IC50 [4, 13]?
**A.** Its IC50 is 22.4 ± 1.97 µM.

**Q.** And the IC50 ([5]; HCT-116, HCT116 (p53+/+) colon cancer cells, resazurin assay, 72 h)?
**A.** Its IC50 is 42.5 ± 3.22 µM.

**Q.** And the IC50 (MDA-MB231/BCRP cells; [14])?
**A.** The IC50 was 65 ± 5.37 µM.

**Q.** With `COc1c(O)ccc2c1c[n+](C)c1c3cc4c(cc3ccc21)OCO4` [Compound 2, isofagaridine] as the compound, how does the IC50 (U87MG glioblastoma cells) read?
**A.** The IC50 was 105 ± 9.16 µM.

**Q.** And the IC50 ([1]; MDA-MB-231, 72 h)?
**A.** The IC50 was 41.4 ± 3.44 µM.

**Q.** And the IC50 (CCRF-CEM leukemia cells; CCRF-CEM)?
**A.** The IC50 was 0.3 ± 0.04 µM.

**Q.** What about the IC50 (normal AML12 hepatocytes; AML12, 72 h) of the same compound?
**A.** Its IC50 is over 120 µM.

**Q.** And the IC50 (U87MG. ΔEGFR cells)?
**A.** Its IC50 is 115 ± 13.8 µM.

**Q.** And the IC50 ([2]; HCT-116, 72 h)?
**A.** Its IC50 is over 120 µM.

**Q.** What about the IC50 ([3]; ADR5000, 72 h) of the same compound?
**A.** The IC50 was 20.4 ± 2.16 µM.

**Q.** And the IC50 ([4]; HepG2, 72 h)?
**A.** Its IC50 is 26.7 ± 3.15 µM.

**Q.** And the IC50 ([5]; HCT-116, 72 h)?
**A.** Its IC50 is 87.1 ± 7.55 µM.

**Q.** What about the IC50 (MDA-MB231/BCRP cells) of the same compound?
**A.** Its IC50 is 114 ± 9.82 µM.

**Q.** Which IC50 (U87MG glioblastoma cells) does the source give for `COc1c2cc3c(cc2nc2occc12)OCO3` [Compound 3, maculine] here?
**A.** Its IC50 is over 165 µM.

**Q.** What about the IC50 ([1]; MDA-MB-231, 72 h) of the same compound?
**A.** The IC50 was over 165 µM.

**Q.** What about the IC50 (CCRF-CEM leukemia cells; CCRF-CEM) of the same compound?
**A.** The IC50 was 89.1 ± 6.22 µM.

**Q.** And the IC50 (normal AML12 hepatocytes; AML12, 72 h)?
**A.** Its IC50 is over 165 µM.

**Q.** What about the IC50 (U87MG. ΔEGFR cells) of the same compound?
**A.** Its IC50 is over 165 µM.

**Q.** And the IC50 ([2]; HCT-116, 72 h)?
**A.** Its IC50 is over 165 µM.

**Q.** What about the IC50 ([3]; ADR5000, 72 h) of the same compound?
**A.** Its IC50 is 63.1 ± 3.75 µM.

**Q.** What about the IC50 ([4]; HepG2, 72 h) of the same compound?
**A.** Its IC50 is over 165 µM.

**Q.** And the IC50 ([5]; HCT-116, 72 h)?
**A.** The IC50 was over 165 µM.

**Q.** And the IC50 (MDA-MB231/BCRP cells)?
**A.** The IC50 was over 165 µM.

**Q.** Which IC50 (U87MG glioblastoma cells) does the source give for `COc1cc2nc3occc3c(OC)c2cc1OC` [Compound 4, kokusaginine] here?
**A.** The IC50 was 70.1 ± 6.4 µM.

**Q.** And the IC50 ([1]; MDA-MB-231, 72 h)?
**A.** The IC50 was 62 ± 7.24 µM.

**Q.** What about the IC50 (CCRF-CEM leukemia cells; CCRF-CEM) of the same compound?
**A.** Its IC50 is 49.8 ± 5.04 µM.

**Q.** And the IC50 (normal AML12 hepatocytes; AML12, 72 h)?
**A.** The IC50 was over 154 µM.

**Q.** What about the IC50 (U87MG. ΔEGFR cells) of the same compound?
**A.** The IC50 was over 154 µM.

**Q.** And the IC50 ([2]; HCT-116, 72 h)?
**A.** Its IC50 is over 154 µM.

**Q.** And the IC50 ([3]; ADR5000, 72 h)?
**A.** Its IC50 is 44.6 ± 3.92 µM.

**Q.** What about the IC50 ([4]; HepG2, 72 h) of the same compound?
**A.** The IC50 was 90.8 ± 8.86 µM.

**Q.** What about the IC50 ([5]; HCT-116, 72 h) of the same compound?
**A.** The IC50 was 120 ± 13.1 µM.

**Q.** What about the IC50 (MDA-MB231/BCRP cells) of the same compound?
**A.** The IC50 was over 154 µM.

From publication PMC4207896, “Cytotoxic Benzophenanthridine and Furoquinoline Alkaloids from Zanthoxylum buesgenii (Rutaceae)” (Chemistry Central Journal, 2014)
